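Briefly, cells in 96-well plates were exposed to five compound concentrations for 48 h, and endpoints were estimated by linear interpolation. TGI denotes the concentration required for complete inhibition of growth.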 *1 amine or outer side, *2 acyl side, *3 side chain or, on linkers, in order; H or OH if unused. Where a SMILES comes first, the peptide text is derived from it. [ ]: non-standard residue; d: D form. The star is where a group is joined. ξ: configuration not given here. NMeY = CN[C@@H](Cc1ccc(O)cc1)C(=O)O; Ethylenediamine = C(CN[*:2])N[*:1]; ξNMeL = CNC(CC(C)C)C(=O)O; Cbz = O=C(OCc1ccccc1)*; Lac = C[C@H](O)C(=O)O; ξA = CC(N)C(=O)O
What was measured:
Assay in all cases: NCI-60 cell line screen, 48 h
NCI-H522 lung = system: NCI-H522 lung
HS 578T breast = system: HS 578T breast
T-47D breast = system: T-47D breast
RXF 393 renal = system: RXF 393 renal
ACHN renal = system: ACHN renal
HCT-116 colon = system: HCT-116 colon
SF-539 CNS = system: SF-539 CNS
EKVX NSCLC = system: EKVX NSCLC
MDA-MB-435 = system: MDA-MB-435
DU-145 prostate = system: DU-145 prostate
A498 renal = system: A498 renal
SW-620 colon = system: SW-620 colon
SNB-75 CNS = system: SNB-75 CNS
RPMI-8226 leukemia = system: RPMI-8226 leukemia
COLO 205 colon = system: COLO 205 colon
HOP-92 NSCLC = system: HOP-92 NSCLC
MDA-MB-231 breast = system: MDA-MB-231 breast
SK-MEL-2 melanoma = system: SK-MEL-2 melanoma
SF-295 CNS = system: SF-295 CNS
OVCAR-5 ovarian = system: OVCAR-5 ovarian

CNCCCNC(=S)Cn1cc(C)c(=O)[nH]c1=O
TGI (NCI-H522 lung): > 100 µM | TGI (HS 578T breast): > 75.5 µM | TGI (T-47D breast): > 100 µM | TGI (RXF 393 renal): > 95.5 µM | TGI (ACHN renal): > 74.3 µM | TGI (HCT-116 colon): > 68 µM | TGI (SF-539 CNS): > 60.9 µM | TGI (EKVX NSCLC): > 100 µM | TGI (MDA-MB-435): > 31.6 µM | TGI (DU-145 prostate): > 80.6 µM | TGI (A498 renal): > 74.8 µM | TGI (SW-620 colon): > 100 µM | TGI (SNB-75 CNS): > 100 µM | TGI (RPMI-8226 leukemia): > 100 µM | TGI (COLO 205 colon): > 69.9 µM | TGI (HOP-92 NSCLC): > 100 µM | TGI (MDA-MB-231 breast): > 100 µM | TGI (SK-MEL-2 melanoma): > 74.4 µM | TGI (SF-295 CNS): > 54.3 µM | TGI (OVCAR-5 ovarian): > 100 µM

Cc1ccc(/C=C2/N=C(N/N=C\C(O)C(O)C(O)CO)NC2=O)cc1 (stereo not given)
TGI (NCI-H522 lung): > 100 µM | TGI (HS 578T breast): > 100 µM | TGI (T-47D breast): > 100 µM | TGI (RXF 393 renal): > 100 µM | TGI (ACHN renal): > 100 µM | TGI (HCT-116 colon): > 100 µM | TGI (SF-539 CNS): > 100 µM | TGI (EKVX NSCLC): > 100 µM | TGI (MDA-MB-435): > 100 µM | TGI (DU-145 prostate): > 100 µM | TGI (A498 renal): > 100 µM | TGI (SW-620 colon): > 100 µM | TGI (SNB-75 CNS): > 100 µM | TGI (RPMI-8226 leukemia): > 100 µM | TGI (COLO 205 colon): > 100 µM | TGI (HOP-92 NSCLC): > 100 µM | TGI (MDA-MB-231 breast): > 100 µM | TGI (SK-MEL-2 melanoma): > 100 µM | TGI (SF-295 CNS): > 100 µM | TGI (OVCAR-5 ovarian): > 100 µM

CN(C)CCNCc1ccc2c(-c3ccccc3)nc3cc(Cl)c(Cl)cc3n12
TGI (NCI-H522 lung): 27.8 µM | TGI (HS 578T breast): 47.6 µM | TGI (T-47D breast): 15.1 µM | TGI (RXF 393 renal): 10 µM | TGI (ACHN renal): 14.8 µM | TGI (HCT-116 colon): 16.3 µM | TGI (SF-539 CNS): 14.4 µM | TGI (EKVX NSCLC): 30.2 µM | TGI (MDA-MB-435): 21.9 µM | TGI (DU-145 prostate): 23.3 µM | TGI (A498 renal): 29.9 µM | TGI (SW-620 colon): 28.3 µM | TGI (SNB-75 CNS): 20.2 µM | TGI (RPMI-8226 leukemia): 36.8 µM | TGI (COLO 205 colon): 14.1 µM | TGI (HOP-92 NSCLC): 28.3 µM | TGI (MDA-MB-231 breast): 25.2 µM | TGI (SK-MEL-2 melanoma): 20.6 µM | TGI (SF-295 CNS): 27.7 µM | TGI (OVCAR-5 ovarian): 26.1 µM

O=[N+]([O-])c1ccc(-n2nc3ccc4c(no[n+]4[O-])c3[n+]2[O-])c([N+](=O)[O-])c1
TGI (NCI-H522 lung): 4.03 µM | TGI (HS 578T breast): 8.6 µM | TGI (T-47D breast): 6.63 µM | TGI (RXF 393 renal): 5.37 µM | TGI (ACHN renal): 5.7 µM | TGI (HCT-116 colon): 3.74 µM | TGI (SF-539 CNS): 12.7 µM | TGI (EKVX NSCLC): 26.6 µM | TGI (MDA-MB-435): 7.39 µM | TGI (DU-145 prostate): 12.6 µM | TGI (A498 renal): 16.3 µM | TGI (SW-620 colon): 5.4 µM | TGI (SNB-75 CNS): 23.5 µM | TGI (RPMI-8226 leukemia): 6.8 µM | TGI (COLO 205 colon): 3.29 µM | TGI (HOP-92 NSCLC): 8.02 µM | TGI (MDA-MB-231 breast): 4.64 µM | TGI (SK-MEL-2 melanoma): 9.92 µM | TGI (SF-295 CNS): 11.9 µM | TGI (OVCAR-5 ovarian): 17 µM

Cc1cccc(NC(=O)O/N=C(\Cl)C(C)C)c1
TGI (NCI-H522 lung): 2.99 µM | TGI (HS 578T breast): 63.7 µM | TGI (T-47D breast): 15.6 µM | TGI (RXF 393 renal): 26.9 µM | TGI (ACHN renal): 3.94 µM | TGI (HCT-116 colon): 11.4 µM | TGI (SF-539 CNS): 20.3 µM | TGI (EKVX NSCLC): 11.1 µM | TGI (MDA-MB-435): 31.7 µM | TGI (DU-145 prostate): 33 µM | TGI (A498 renal): 34.4 µM | TGI (SW-620 colon): 3.6 µM | TGI (SNB-75 CNS): 33.1 µM | TGI (RPMI-8226 leukemia): 10.5 µM | TGI (COLO 205 colon): 3.76 µM | TGI (HOP-92 NSCLC): 3.14 µM | TGI (MDA-MB-231 breast): 33.4 µM | TGI (SK-MEL-2 melanoma): 32.6 µM | TGI (SF-295 CNS): 32.1 µM | TGI (OVCAR-5 ovarian): 35.8 µM

N#CCCN(CCC#N)c1ccc(C(N=Nc2ccc(Cl)cc2)=Nc2ccccc2)cc1
TGI (NCI-H522 lung): 30.4 µM | TGI (HS 578T breast): 35 µM | TGI (T-47D breast): 27.2 µM | TGI (RXF 393 renal): 30.8 µM | TGI (ACHN renal): 27.2 µM | TGI (HCT-116 colon): 24.4 µM | TGI (SF-539 CNS): 29.1 µM | TGI (EKVX NSCLC): 24.4 µM | TGI (MDA-MB-435): 27.5 µM | TGI (DU-145 prostate): 26.9 µM | TGI (A498 renal): 34.5 µM | TGI (SW-620 colon): 39.2 µM | TGI (SNB-75 CNS): 31.8 µM | TGI (RPMI-8226 leukemia): > 100 µM | TGI (COLO 205 colon): 12.4 µM | TGI (HOP-92 NSCLC): 32.3 µM | TGI (MDA-MB-231 breast): 33.8 µM | TGI (SK-MEL-2 melanoma): 13.9 µM | TGI (SF-295 CNS): 12 µM | TGI (OVCAR-5 ovarian): 26 µM

COc1ccc(C[C@@H](C(=O)NCCNC(=O)C(CC(C)C)N(C)C(=O)[C@@H]2CCCN2C(=O)[C@H](C)O)N(C)C(=O)[C@@H]2CCCN2C(=O)[C@H](CC(C)C)NC(=O)C(C)NC(=O)OCc2ccccc2)cc1 (stereo not given in full) (Cbz-[ξA]LP[NMeY](Me)-{Ethylenediamine-ξNMeL-Pro-Lac})
TGI (NCI-H522 lung): > 100 µM | TGI (HS 578T breast): > 100 µM | TGI (T-47D breast): > 100 µM | TGI (RXF 393 renal): > 100 µM | TGI (ACHN renal): > 100 µM | TGI (HCT-116 colon): > 100 µM | TGI (SF-539 CNS): > 100 µM | TGI (EKVX NSCLC): > 100 µM | TGI (MDA-MB-435): > 100 µM | TGI (DU-145 prostate): > 100 µM | TGI (A498 renal): > 100 µM | TGI (SW-620 colon): > 100 µM | TGI (SNB-75 CNS): > 100 µM | TGI (RPMI-8226 leukemia): > 100 µM | TGI (COLO 205 colon): > 100 µM | TGI (HOP-92 NSCLC): > 100 µM | TGI (MDA-MB-231 breast): > 100 µM | TGI (SK-MEL-2 melanoma): > 100 µM | TGI (SF-295 CNS): > 100 µM | TGI (OVCAR-5 ovarian): > 100 µM

CN(CCNC(=O)c1c[nH]c2c1ccc1ccccc12)CCNC(=O)c1c[nH]c2c1ccc1ccccc12
TGI (NCI-H522 lung): 3.45 µM | TGI (HS 578T breast): 10.5 µM | TGI (T-47D breast): 2.7 µM | TGI (RXF 393 renal): 2.62 µM | TGI (ACHN renal): 4.72 µM | TGI (HCT-116 colon): 3.39 µM | TGI (SF-539 CNS): 3.39 µM | TGI (EKVX NSCLC): 11.1 µM | TGI (MDA-MB-435): 3.47 µM | TGI (DU-145 prostate): 5.06 µM | TGI (A498 renal): 8.47 µM | TGI (SW-620 colon): 3.08 µM | TGI (SNB-75 CNS): 3.38 µM | TGI (RPMI-8226 leukemia): 15.6 µM | TGI (COLO 205 colon): 3.24 µM | TGI (HOP-92 NSCLC): 7.2 µM | TGI (MDA-MB-231 breast): 3.2 µM | TGI (SK-MEL-2 melanoma): 3.91 µM | TGI (SF-295 CNS): 4.79 µM | TGI (OVCAR-5 ovarian): 12.3 µM

S=C=Nc1ccc(CSc2nc3ccccc3[nH]2)cc1
TGI (NCI-H522 lung): 19.1 µM | TGI (HS 578T breast): > 100 µM | TGI (T-47D breast): 31.8 µM | TGI (RXF 393 renal): 33.5 µM | TGI (ACHN renal): 30.5 µM | TGI (HCT-116 colon): 44.5 µM | TGI (SF-539 CNS): 33.4 µM | TGI (EKVX NSCLC): 40.4 µM | TGI (MDA-MB-435): 33.9 µM | TGI (DU-145 prostate): 29.6 µM | TGI (A498 renal): 46 µM | TGI (SW-620 colon): 31.4 µM | TGI (SNB-75 CNS): 32 µM | TGI (RPMI-8226 leukemia): 52.5 µM | TGI (COLO 205 colon): 29 µM | TGI (HOP-92 NSCLC): 32 µM | TGI (MDA-MB-231 breast): 51.6 µM | TGI (SK-MEL-2 melanoma): 34.8 µM | TGI (SF-295 CNS): 32.3 µM | TGI (OVCAR-5 ovarian): 32.4 µM
